As a reminder, the ED50 is the dose that gives a 50% effect, or the effect in half of the subjects. In general, Ki refers to a dissociation constant, usually derived from enzyme kinetics or from competition with a known ligand. As a reminder, the IC50 is the concentration at which inhibition is half-maximal. For orientation: EC50 means the concentration that produces a half-maximal response. By bioavailability is commonly meant dose-corrected exposure relative to a reference, in per cent. In general, half-life refers to the time needed for the level to fall by half in the phase considered.

The species entered for data set [1] is Homo sapiens. Kind of data set: Toxicity in human assessed as reduction in heart rate at 1.25 mg measured for 2 days. Particulars: in vivo, 48 h.
For data set [2], the species on record is Homo sapiens. The data set can be described thus: Toxicity in human assessed as reduction in heart rate measured every day for 9 days. Particulars: 216 h.
Data set [3] has as its system Mus musculus. Kind of data set: Reduction in peripheral lymphocyte level in mouse administered iv measured 3 hrs post dose. The format is functional.
The target in data set [4] is T1, Sphingosine 1-phosphate receptor 1 (Homo sapiens, UniProt P21453). Kind of data set: Displacement of [33P]-S1P from S1P1 receptor (unknown origin) expressed in CHOK1 cells after 60 mins by microbeta scintillation proximity assay. The format is cell-based.
The target of data set [5] is T2, Sphingosine 1-phosphate receptor 3 (Homo sapiens, UniProt Q99500). The data set can be described thus: Displacement of [33P]-S1P from S1P3 receptor (unknown origin) expressed in CHOK1 cells after 60 mins by microbeta scintillation proximity assay. The class given is cell-based.
Data set [6] has as its target T2, Sphingosine 1-phosphate receptor 3. Kind of data set: Displacement of [33P]-S1P from human S1P3 receptor expressed in CHO cell membranes.
For data set [7], the target named is T1, Sphingosine 1-phosphate receptor 1. The data set can be described thus: Displacement of [33P]-S1P from human S1P1 receptor expressed in CHO cell membranes.
Data set [8] deals with T2, Sphingosine 1-phosphate receptor 3. Kind of data set: Displacement of [33P]-S1P from S1P3 receptor (unknown origin) expressed in CHO cell membranes.
The target in data set [9] is T1, Sphingosine 1-phosphate receptor 1. Kind of data set: Displacement of [33P]-S1P from S1P1 receptor (unknown origin) expressed in CHO cell membranes.
The test system of data set [10] is Mus musculus. The data set can be described thus: Immunosuppressive activity in BALB/c mouse assessed as reduction in peripheral blood lymphocytes at 30 mg/kg, ip measured 4 days post dose. The format is functional. More on the design: scale not given: the % may be the effect or the level left.
Data set [11] relates to Mus musculus. Kind of data set: Reduction in peripheral lymphocyte level in Swiss mouse at 10 mg/kg, po measured 24 hrs post dose. Set-up: scale not given: the % may be the effect or the level left. The class given is functional.
The species named for data set [12] is Homo sapiens. Kind of data set: Toxicity in human assessed as reduction in heart rate at 10 mg measured 2 hrs post dose. The settings on record: in vivo.
The target of data set [13] is T1, Sphingosine 1-phosphate receptor 1. Kind of data set: Agonist activity at human S1P1 receptor expressed in CHO cell membranes after 45 mins by [35S] GTPgammaS binding based scintillation counting analysis. The class given is functional. Background: GTPγS resists hydrolysis and so accumulates on activated G proteins.
The target of data set [14] is T2, Sphingosine 1-phosphate receptor 3. The data set can be described thus: Agonist activity at human S1P3 receptor expressed in CHO cell membranes after 45 mins by [35S] GTPgammaS binding based scintillation counting analysis. The class given is functional.
For data set [15], the species on record is Homo sapiens. The data set can be described thus: Toxicity in human assessed as reduction in heart rate at 10 mg measured on day 1. Particulars: in vivo.
The subject of data set [16] is Trachea. The data set can be described thus: Induction of tracheal constriction in Wistar rat at 10 uM.
In data set [17] the test system is Trachea. The data set can be described thus: Induction of tracheal constriction in Wistar rat at 1 uM.
For data set [18], the system named is Mus musculus. The data set can be described thus: Reduction in peripheral lymphocyte level in mouse administered po measured 3 hrs post dose. The class given is functional.
A short description of data set [19]: Oral bioavailability in mouse. The format is ADME, organism-based. Particulars: in vivo.
The nature of data set [20]: Half life in iv dosed Sprague-Dawley rat. The format is ADME, organism-based. The settings on record: in vivo.
Data set [21] in a line: Half life in po dosed Sprague-Dawley rat. The format is ADME, organism-based. Particulars: in vivo.
Another data set concerns Rattus norvegicus. Kind of data set: Reduction in peripheral lymphocyte level in rat at 10 mg/kg, po measured 6 hrs post dose. The format is functional. Set-up: scale not given: the % may be the effect or the level left.

T1 sequence (P21453 whole entry): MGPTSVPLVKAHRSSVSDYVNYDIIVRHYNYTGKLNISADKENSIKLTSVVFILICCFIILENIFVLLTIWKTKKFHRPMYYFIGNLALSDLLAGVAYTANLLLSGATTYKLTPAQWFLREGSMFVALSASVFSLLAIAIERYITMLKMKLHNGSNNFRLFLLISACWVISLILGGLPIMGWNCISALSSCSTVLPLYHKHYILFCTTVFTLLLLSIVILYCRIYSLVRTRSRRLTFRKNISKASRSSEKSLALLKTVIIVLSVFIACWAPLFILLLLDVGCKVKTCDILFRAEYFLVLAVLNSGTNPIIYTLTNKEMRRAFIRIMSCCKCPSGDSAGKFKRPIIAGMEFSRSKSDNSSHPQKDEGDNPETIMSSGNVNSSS
T2 sequence (Q99500 whole entry): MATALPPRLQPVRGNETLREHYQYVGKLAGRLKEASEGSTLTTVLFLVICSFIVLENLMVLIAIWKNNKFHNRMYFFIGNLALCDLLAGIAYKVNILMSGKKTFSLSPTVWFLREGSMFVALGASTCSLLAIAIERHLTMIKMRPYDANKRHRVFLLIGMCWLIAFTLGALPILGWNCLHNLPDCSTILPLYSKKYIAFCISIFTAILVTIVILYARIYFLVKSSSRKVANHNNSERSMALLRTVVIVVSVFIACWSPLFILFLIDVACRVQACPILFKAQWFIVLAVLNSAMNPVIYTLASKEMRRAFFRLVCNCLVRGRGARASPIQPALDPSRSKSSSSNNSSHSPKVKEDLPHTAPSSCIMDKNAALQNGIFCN

Consider `CCCCCCCCc1ccc(CCC(N)(CO)CO)cc1` [FINGOLIMOD], for which the Activity in the data set filed under Homo sapiens [1] lay in the range of 8 to 11 bpm; in the data set listed under Homo sapiens [2] it was 1 to 2 bpm.
In turn, `CCCCCCCCc1ccc(CCC(N)COP(=O)(O)O)cc1` (centres undefined) returned an ED50 with Mus musculus [3] of 0.06 mg/kg.
Regarding `COCc1cc(-c2nc(-c3cccc(OCC(=O)O)c3)no2)ccc1-c1ccccc1C`, the Ki in data set [4] came to 0.8 nM; in [5], 1040 nM.
For `CCCCCCCCc1ccc(CNCCCP(C)(=O)O)cc1`, the IC50 turned out to be 100 nM in [6] and 12 nM in data set [7].
Consider `CCCCCCCCc1ccc(CCC(N)(CO)CCP(=O)(O)O)cc1` (centres undefined), for which the results for the IC50 in [8] and in [9] were 7 nM and 6 nM, respectively. Further, in the data set on Mus musculus [3], the 50% effect level (ED50) was put at a dose of 2.35 mg/kg.
Regarding `CCCCCCCCc1ccc2c(c1)CC(N)(CO)CC2` (centres undefined), the Activity in the data set on Mus musculus [10] is 64%.
For the compound `CCCCCCCCc1ccc(CC[C@@H](N)CCP(=O)(O)O)cc1`, the IC50 amounted to 280 nM in data set [6] and 8.4 nM in [7].
Regarding `O=C(O)C1(C(=O)O)CC(NCc2ccc(-c3noc(-c4ccc(-c5ccccc5)c(F)c4)n3)cc2)C1`, the Activity with Mus musculus [11] is recorded as 86%.
In the case of `COCc1cc(-c2nc(-c3ccc(-c4ccc(C(=O)O)c(F)c4)cc3)no2)ccc1-c1ccccc1C`, the Ki was found to be 2.9 nM in data set [4] and 2200 nM in data set [5].
For the compound `CCc1cc(/C(C)=N/OCc2ccc(C3CCCCC3)c(C(F)(F)F)c2)ccc1CN1CC(C(=O)O)C1` [SIPONIMOD], the Activity in the data set listed under Homo sapiens [12] was determined as 16 bpm.
With `N#CC1(NC(=O)[C@@H](O)c2ccc(-c3noc(-c4onc(-c5ccccc5)c4C(F)(F)F)n3)cc2)CC1`, the EC50 in data set [13] was 15 nM; in data set [14], > 31000 nM.
`CCC/N=C1\S/C(=C\c2ccc(OC[C@H](O)CO)c(Cl)c2)C(=O)N1c1ccccc1C` [PONESIMOD]: in the data set filed under Homo sapiens [15], the Activity fell in the range of 10 to 12 bpm.
For the compound `CCc1cc(-c2noc(-c3cc(CC(C)C)nc(OC)c3)n2)cc(C)c1OC[C@@H](O)CO`, the Activity is recorded as 124% in the data set with Trachea [16] and < 5% in the data set on Trachea [17].
Compound `CCCCCCCCc1ccc(CN2CC(C(=O)O)C2)cc1` showed an ED50 in the data set with Mus musculus [18] of 5.2 mg/kg. Moreover, the figures for the half-inhibitory concentration (IC50) in data set [6] and in [7] were 4900 nM and 18 nM, respectively. Further, in data set [19], the bioavailability was > 70%.
As for `CCc1cc(-c2noc(-c3cc(CC(C)C)nc(OC)c3)n2)cc(C)c1OC[C@@H](O)CNC(=O)CO`, in the data set on Trachea [17], the Activity is recorded as 133%.
As to `CCCCCCCCc1ccc(CC[C@@H](N)C[C@H](O)P(=O)(O)O)cc1`, the ED50 in the data set on Mus musculus [3] is 0.15 mg/kg.
As for `CCc1cc(-c2noc(-c3cc(OC)nc(C(CC)CC)c3)n2)cc(C)c1OC[C@@H](O)CO`, the Activity is 24% with Trachea [16] and < 5% with Trachea [17].
With `CCc1cc(-c2noc(-c3cc(OC)nc(C(CC)CC)c3)n2)cc(C)c1OC[C@@H](O)CNC(=O)CO`, the Activity in the data set with Trachea [16] was 100%; with Trachea [17], < 5%.
Turning to `CC(C)Cc1ccc(-c2nc(-c3ccc(CN4CC(C(=O)O)C4)c(F)c3)no2)cc1` [ICANBELIMOD], the half-life in data set [20] and in [21] was 5.5 h in each case.
`CCCCCCCCc1ccc(CNCCCC(=O)O)cc1`: the IC50 is 1200 nM in data set [6] and 7.7 nM in [7].
Turning to `CC(C)Cc1ccc(-c2nc(-c3ccc(CN4CC(C(=O)O)C4)cc3)no2)cc1`, the half-life is 9 h in data set [20] and 11 h in [21].
In turn, `CCc1cc(-c2nnc(-c3sc(C)c4c3C[C@@H]3[C@H]4C3(C)C)o2)cc(C)n1` gave an Activity in the data set with Rattus norvegicus of 77%.

The values are drawn from ChEMBL document CHEMBL4028806, “Modulators of Sphingosine-1-phosphate Pathway Biology: Recent Advances of Sphingosine-1-phosphate Receptor 1 (S1P1) Agonists and Future Perspectives” (J Med Chem, 2017).
